{"source": "patent US20160206583A1", "about": "“AMINO ACID TREATMENT OF SEIZURES” (THE JOHNS HOPKINS UNIVERSITY, priority 2013, published 2016)", "key": {"[1]": {"system": "kainic acid-induced seizures", "assay": "Kainic acid status epilepticus test", "type": "in vivo, mice", "experimental": "Male NIH Swiss mice (NCI, Frederick, Md., U.S.A.) aged 3-4 weeks were acclimatized to the animal care facility for 1-5 days and housed four per cage. All mice were fed unrestricted normal rodent chow (Teklad Global 2018SX, Madison, Wis., U.S.A.). Only in experiments lasting 2 weeks, mice were fasted overnight before the D-leucine was administered in drinking water.\n[…] Louis, Mo., U.S.A.) or given D-leucine in drinking water (1.5% w/v) for 13 days after an initial overnight fast. […] Louis, Mo., U.S.A.).\nEach mouse was tested for seizures only once. Personnel performing seizure testing and assessments were blinded to treatment group assignments. Seizure tests were performed 3 h following a single dose of D-leucine, 15-25 min after the administration of kainic acid, or after 13 days of D-leucine exposure in drinking water.\nKainic acid was injected intraperitoneally (22.5-25 mg kainic acid/kg mouse body mass, 5.3 mg/ml PBS, Tocris Bioscience, Ellisville, Mo., U.S.A.) as described previously (Hartman et al., 2012). Mice were observed continuously in plexiglass cages for the duration of the experiment. Seizure behaviors were scored for 2 h using a modified Racine scale (the highest score in a given 5-min block was used): 0, no seizure; 1, immobility; 2, forelimb and/or tail extension; 3, automatisms; 4, forelimb clonus, rearing, and/or falling; 5, repetition of stage 4; 6, tonic-clonic seizures; and 7, death (Hartman et al., 2010). As the mouse behaviors only occur intermittently, the highest seizure score achieved in a 5 min epoch was recorded.\nProbit analyses (used in the 6 Hz test to determine the current where half the mice experienced any seizure behavior, or CC50, was performed using Minitab 16 (State College, Pa., U.S.A.). The level of significance in the 6 Hz test was 0.05. T-tests and one-way ANOVAs were performed using GraphPad Prism 4 (LaJolla, Calif., U.S.A.). In the kainic acid test, one-way ANOVAs were performed for multiple comparisons of 3 treatment groups. When 2 groups were compared in the kainic acid test, the level of significance was 0.01 (because 3-4 parameters were measured simultaneously, this represents a Bonferroni correction of a typical level of significance of 0.05)."}, "6 Hz-induced seizures": {"system": "6 Hz-induced seizures", "assay": "6 Hz test", "type": "in vivo, mice", "settings": "D-leucine 1.5% w/v in drinking water for 13 days", "experimental": "Male NIH Swiss mice (NCI, Frederick, Md., U.S.A.) aged 3-4 weeks were acclimatized to the animal care facility for 1-5 days and housed four per cage. All mice were fed unrestricted normal rodent chow (Teklad Global 2018SX, Madison, Wis., U.S.A.). Only in experiments lasting 2 weeks, mice were fasted overnight before the D-leucine was administered in drinking water. At 5 weeks of age, mice were injected intraperitoneally with D-leucine 3 mg/kg (“low dose”) or 300 mg/kg (“high dose”) body weight (Sigma-Aldrich, St. Louis, Mo., U.S.A.) or given D-leucine in drinking water (1.5% w/v) for 13 days after an initial overnight fast. […] Probit analyses (used in the 6 Hz test to determine the current where half the mice experienced any seizure behavior, or CC50, was performed using Minitab 16 (State College, Pa., U.S.A.). The level of significance in the 6 Hz test was 0.05. T-tests and one-way ANOVAs were performed using GraphPad Prism 4 (LaJolla, Calif., U.S.A.). In the kainic acid test, one-way ANOVAs were performed for multiple comparisons of 3 treatment groups. When 2 groups were compared in the kainic acid test, the level of significance was 0.01 (because 3-4 parameters were measured simultaneously, this represents a Bonferroni correction of a typical level of significance of 0.05)."}, "AMPA receptor": {"system": "AMPA receptor", "settings": "hippocampal neurons; Gong et al., 2007; cited from earlier work"}, "[2]": {"system": "maximal electroshock-induced seizures", "settings": "literature (Peterson, 1991; Kalinichev et al., 2010); cited from earlier work"}, "amygdala-kindled rats": {"system": "amygdala-kindled rats", "settings": "dose-dependent, Loscher et al., 1994; cited from earlier work"}, "[3]": {"system": "GAERS (Genetic Absence Epilepsy Rats from Strasbourg) Wistar rats", "settings": "intracerebroventricular or intrathalamic routes; Koerner et al., 1996; cited from earlier work"}, "[4]": {"system": "hexafluorodiethyl ether seizures", "settings": "Gallagher, 1969; cited from earlier work"}, "[5]": {"system": "picrotoxin-induced seizures", "settings": "rats; Skeie et al., 1994; cited from earlier work"}, "[6]": {"system": "pentylenetetrazol-induced seizures", "settings": "Dufour et al., 1999, cited from earlier work"}, "[7]": {"settings": "CBIO 10 mg/kg 15 min after kainic acid"}, "[8]": {"settings": "pretreatment, CBIO 10 mg/kg three hours prior to kainic acid"}, "[9]": {"settings": "D-leucine 300 mg/kg 15 min after kainic acid (after seizure onset)"}, "[10]": {"settings": "pretreatment, D-leucine 3 mg/kg i.p. 3 h before kainic acid (23.5 mg/kg)"}, "[11]": {"settings": "pretreatment, D-leucine 300 mg/kg i.p. 3 h before kainic acid (23.5 mg/kg)"}, "[12]": {"settings": "D-serine 3 mg/kg 15 min after kainic acid"}, "[13]": {"settings": "D-serine 300 mg/kg 15 min after kainic acid"}}, "data": [{"smiles": "Oc1noc2ccc(Cl)cc12", "note": "[CBIO, 5-chloro-benzo[d]isoxazol-3-ol]", "values": [{"measurement": "maximum seizure score", "setting": "[1]; [7]", "result": "no effect"}, {"measurement": "mean seizure score", "setting": "[1]; [7]", "result": "decrease"}, {"measurement": "number of epochs with a seizure stage ≧2", "setting": "[1]; [7]", "result": "decrease"}, {"measurement": "latency to seizure stage ≧2", "setting": "[1]; [8]", "result": "no effect"}, {"measurement": "maximum seizure score", "setting": "[1]; [8]", "result": "no effect"}, {"measurement": "mean seizure score", "setting": "[1]; [8]", "result": "decreased"}, {"measurement": "number of epochs with a seizure stage ≧2", "setting": "[1]; [8]", "result": "decreased"}]}, {"smiles": "CC(C)C[C@@H](N)C(=O)O", "note": "[D-leucine]", "values": [{"measurement": "CC50 (current where half of mice had a convulsion)", "setting": "6 Hz-induced seizures", "result": "increased"}, {"measurement": "kainic acid-induced AMPA receptor-mediated current", "setting": "AMPA receptor", "result": "inactive"}, {"measurement": "protection against seizures induced by kainic acid", "setting": "[1]; D-leucine 3 mg/kg 15 min after the onset of seizures (FIGS. 4C-4D)", "result": "protects against seizures"}, {"measurement": "seizure outcome compared with diazepam (10 mg/kg)", "setting": "[1]; D-leucine 3 mg/kg 20 min after kainic acid (25 mg/kg)", "result": "not inferior to treatment with diazepam"}, {"measurement": "mean seizure score", "setting": "[1]; [9]", "result": "no effect"}, {"measurement": "number of epochs with a seizure score ≧2", "setting": "[1]; [9]", "result": "decreased"}, {"measurement": "maximum seizure score", "setting": "[1]; D-leucine 300 mg/kg 15 min after kainic acid (after seizure onset), trend noted", "result": "no effect"}, {"measurement": "protection against seizures", "setting": "[1]; pretreatment, D-leucine 0.3 mg/kg 3 h before kainic acid (23.5 mg/kg)", "result": "did not protect against seizures"}, {"measurement": "mean seizure score", "setting": "[1]; [10]", "result": "decreased"}, {"measurement": "number of epochs with a seizure stage ≧2", "setting": "[1]; [10]", "result": "decreased"}, {"measurement": "maximum seizure score", "setting": "[1]; pretreatment, D-leucine 0.3, 3 or 300 mg/kg vs water, 3 h before kainic acid", "result": "no difference between groups"}, {"measurement": "latency to onset of seizure stage ≧2", "setting": "[1]; [11]", "result": "prolonged"}, {"measurement": "mean seizure score", "setting": "[1]; [11]", "result": "decreased"}, {"measurement": "number of epochs with a seizure stage ≧2", "setting": "[1]; [11]", "result": "decreased"}]}, {"smiles": "N[C@H](CO)C(=O)O", "note": "[D-serine]", "values": [{"measurement": "protection against maximal electroshock-induced seizures", "setting": "[2]", "result": "weak but statistically significant protection"}, {"measurement": "after discharge thresholds", "setting": "amygdala-kindled rats", "result": "increases"}, {"measurement": "kainic acid-induced AMPA receptor-mediated current", "setting": "AMPA receptor", "result": "inhibits"}, {"measurement": "effect on spike wave discharges", "setting": "[3]", "result": "no effect"}, {"measurement": "maximum seizure score", "setting": "[1]; [12]", "result": "decrease"}, {"measurement": "mean seizure score", "setting": "[1]; [12]", "result": "decrease"}, {"measurement": "number of epochs with a seizure stage ≧2", "setting": "[1]; [12]", "result": "decrease"}, {"measurement": "maximum seizure score", "setting": "[1]; [13]", "result": "no effect"}, {"measurement": "mean seizure score", "setting": "[1]; [13]", "result": "decrease"}, {"measurement": "number of epochs with a seizure stage ≧2", "setting": "[1]; [13]", "result": "decrease"}]}, {"smiles": "CC(C)C[C@H](N)C(=O)O", "note": "[L-leucine]", "values": [{"measurement": "protection against hexafluorodiethyl ether seizures", "setting": "[4]", "result": "not"}, {"measurement": "protection against picrotoxin-induced seizures", "setting": "[5]", "result": "protects"}, {"measurement": "protection against pentylenetetrazol-induced seizures", "setting": "[6]; rats", "result": "protects"}]}, {"smiles": "CC(C)CC(=O)C(=O)O", "note": "[α-ketoisocaproic acid]", "values": [{"measurement": "activity in the PTZ test", "setting": "[6]", "result": "not active"}]}]}
